According to publication doi:10.1101/2023.03.31.535043v1 (biorxiv, 2023):

Target: human A2AR (Homo sapiens, UniProt P29274)
Test: radioligand displacement, [3H]ZM241385
Format: binding
Settings: […] [3H]ZMA; […] Tris/HCl pH […]; […] min; CHO K1 membranes

human A2AR, sequence (P29274 whole entry): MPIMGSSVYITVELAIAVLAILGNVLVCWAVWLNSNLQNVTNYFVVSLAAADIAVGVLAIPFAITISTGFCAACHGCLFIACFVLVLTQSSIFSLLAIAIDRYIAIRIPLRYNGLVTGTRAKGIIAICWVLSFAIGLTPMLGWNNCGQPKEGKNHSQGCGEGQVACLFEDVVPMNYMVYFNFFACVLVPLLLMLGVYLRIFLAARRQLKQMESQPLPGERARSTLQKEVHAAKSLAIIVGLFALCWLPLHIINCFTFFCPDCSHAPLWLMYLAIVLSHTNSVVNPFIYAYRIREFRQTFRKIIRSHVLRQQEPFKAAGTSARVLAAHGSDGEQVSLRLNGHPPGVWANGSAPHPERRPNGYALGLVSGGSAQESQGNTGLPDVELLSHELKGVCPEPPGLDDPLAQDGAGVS

Ki: 0.31 ± 0.0234 µM
SMILES: N#Cc1c(NC(=O)Cn2c(=O)oc3ccccc32)oc(-c2ccccc2)c1-c1ccccc1 [JG-10]
